The source of these data is paper PMC11969544, “Structure-Based Mechanism and Specificity of Human Galactosyltransferase β3GalT5” (Journal of the American Chemical Society, 2025).

Series [1] addresses T1, human β3GalT5 (β1,3-galactosyltransferase 5) (Homo sapiens, UniProt Q9Y2C3).
T1 construct: gene B3GALT5; recombinant luminal catalytic domain Phe31-Pro308 (crystallised construct), transmembrane domain removed; N-glycosylated
T1 sequence (Q9Y2C3 31-308): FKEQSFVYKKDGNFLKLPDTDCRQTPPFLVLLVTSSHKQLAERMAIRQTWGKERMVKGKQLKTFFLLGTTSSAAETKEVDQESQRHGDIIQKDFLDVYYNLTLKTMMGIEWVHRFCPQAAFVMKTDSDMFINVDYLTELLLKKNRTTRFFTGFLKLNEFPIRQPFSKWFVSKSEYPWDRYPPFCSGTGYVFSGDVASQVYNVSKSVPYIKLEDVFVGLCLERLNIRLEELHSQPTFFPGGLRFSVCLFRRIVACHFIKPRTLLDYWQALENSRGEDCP
In words: galactosyltransfer kinetics (details in supplement). Format: biochemical. As to conditions: acceptor; donor UDP-Gal; crystal structure of the complex also solved.

In series [2] the target is T1, human β3GalT5 (β1,3-galactosyltransferase 5). The series is described as follows: X-ray crystallography (cocrystallisation). It counts as binding. The conditions noted are these: Mn2+; donor site; inert donor analogue.
Series [3] shares this target. In words: X-ray crystallography. It counts as binding. As to conditions: Mn2+; donor site; with Gb5 glycan bound.
Substrate in series [4]: COC1O[C@H](CO)[C@H](O)[C@H](O[C@@H]2O[C@H](CO)[C@@H](O)[C@H](O)[C@H]2NC(C)=O)[C@H]1O
The series is described as follows: galactosyltransfer kinetics (details in supplement). It counts as biochemical, Homo sapiens. The conditions noted are these: acceptor; donor UDP-Gal; crystal structure of the complex also solved.

Substrate in series [5]: CC(=O)N[C@H]1[C@H](O[C@H]2[C@@H](O)[C@@H](CO)O[C@H](O[C@H](C)[C@H](N)C(=O)O)[C@@H]2NC(C)=O)O[C@H](CO)[C@@H](O)[C@@H]1O
Described as above. It counts as biochemical, Homo sapiens. The conditions noted are these: acceptor; donor UDP-Gal; crystal structure of the complex also solved.

In the case of `CC(=O)N[C@H]1[C@H](O[C@H]2[C@@H](O)[C@@H](CO)O[C@H](O[C@@H]3[C@H](O)[C@@H](O)[C@H](O[C@H]4[C@H](O)[C@@H](O)C(O)O[C@@H]4CO)O[C@@H]3CO)[C@@H]2O)O[C@H](CO)[C@H](O)[C@@H]1O` (some centres unmarked) [Gb4 glycan], in series [1], the Km (usually the substrate concentration at which the rate is half of its maximum) turned out to be 2000 µM.

On to `O=c1ccn([C@@H]2O[C@H](COP(=O)(O)OP(=O)(O)O[C@H]3O[C@H](CO)[C@H](O)[C@H](O)[C@H]3F)[C@@H](O)[C@H]2O)c(=O)[nH]1` [UDP-2FGal, UDP-2-deoxy-2-fluoro-α-D-galactopyranose], for which the “X-ray crystallography (cocrystallisation)” value in series [2] is on record as “employed an inert analog of the sugar nucleotide donor, UDP-2-deoxy-2-fluoro-α-D-galactopyranose (UDP-2FGal) for cocrystallization with β3GalT5”. Regarding `O=c1ccn([C@@H]2O[C@H](COP(=O)(O)OP(=O)(O)O)[C@@H](O)[C@H]2O)c(=O)[nH]1` [UDP], the X-ray crystallography entry in series [3] was “β3GalT5 cocrystallized with UDP and soaked with the product Gb5 (SSEA3) glycan”.

B1: human β3GalT5 (β1,3-galactosyltransferase 5) (Homo sapiens) (protein)
chain: FKEQSFVYKKDGNFLKLPDTDCRQTPPFLVLLVTSSHKQLAERMAIRQTWGKERMVKGKQLKTFFLLGTTSSAAETKEVDQESQRHGDIIQKDFLDVYYNLTLKTMMGIEWVHRFCPQAAFVMKTDSDMFINVDYLTELLLKKNRTTRFFTGFLKLNEFPIRQPFSKWFVSKSEYPWDRYPPFCSGTGYVFSGDVASQVYNVSKSVPYIKLEDVFVGLCLERLNIRLEELHSQPTFFPGGLRFSVCLFRRIVACHFIKPRTLLDYWQALENSRGEDCP
notes: recombinant luminal catalytic domain Phe31-Pro308 (crystallised construct), transmembrane domain removed; N-glycosylated
As for B1, the figures for the Km in series [4] and in series [5] were 500 µM and 750 µM, respectively.
